# Measured values from US11932839B2, “Microengineered tissue barrier system” (Georgia Tech Research Corporation, priority 2019, dated 2024).
# Tested on: human astrocytes (HA)
# Test: LCN2 expression (qRT-PCR) in human astrocytes stimulated with IL-1β
# Type: cell-based
# Conditions: 1 ng/mL or 10 ng/mL IL-1β, 20 h
# Protocol: In order to compare the structure and function of human astrocytes (HA) in 2D and 3D cultures, HAs were seeded at a density of 1×10^6 cells/mL in Matrigel (Growth factor-reduced; Corning, NY, USA) coated 24-wells and in 3D Matrigel (5 mg/mL). After 1 day of culture, cells were stimulated with 1 ng/mL or 10 ng/mL of recombinant human interleukin-1-beta (IL-1β; Gibco, Grand Island, NY, USA) and incubated for another 20 h for analysis.
# The gene expression level of the reactive gliosis marker in 2D or 3D cultured human astrocytes (HA) was confirmed through qRT-PCR analysis. To analyze glial reactivity of HA in 2D and 3D culture system (n=4), standard qRT-PCR was performed with a StepOnePlus Real-Time PCR system (Applied Biosystems) using TaqMan Fast Universal PCR Master Mix (Applied Biosystems). The target genes were assessed using commercially available primers, and the primers used in the experiment are shown in Table 2 below.
substance,measurement,setting,value
"IL-1β: recombinant human interleukin-1-beta, an inflammatory cytokine",expression level of LCN2,"HA inside 3D Matrigel, FIG. 41",dose-dependently controlled
same,expression level of LCN2,"HA on 2D Matrigel-coated surface, FIG. 40",dose-dependently controlled
